Consider one molecule from patent US5876761A, “Sustained release formulations of water soluble peptides” (Novartis AG, priority 1990, dated 1999).

The series in a line: Stability of octreotide pamoate in sustained release formulations. It is filed as physicochemical. To be noted: in sustained release formulations (microparticles); hydrate.

“Also recorded” adds a separate entry of the source.

Regarding `C[C@@H](O)[C@@H]1NC(=O)[C@H](CCCCN)NC(=O)[C@@H](Cc2c[nH]c3ccccc23)NC(=O)[C@H](Cc2ccccc2)NC(=O)[C@@H](NC(=O)[C@H](N)Cc2ccccc2)CSSC[C@@H](C(=O)N[C@H](CO)[C@@H](C)O)NC1=O` [pamoate, octreotide pamoate hydrate], the stability result is reported as “excellent stability; also recorded: very stable”.
